This is an account of results in PubChem BioAssay (NCI).

Experiment in all cases: NCI anticancer screen, dose series, 48 h
In assay [1] the test system is UO-31 renal.
The test system of assay [2] is IGROV1 ovarian.
The subject of assay [3] is MCF7 breast.
For assay [4], the system named is SN12C renal.
In assay [5] the test system is MALME-3M melanoma.
Assay [6] relates to KM12 colon.
Assay [7] has as its system HCT-116 colon.
The subject of assay [8] is SR leukemia.
Assay [9] has as its system EKVX NSCLC.
For assay [10], the system named is NCI-H23 lung.
Assay [11] relates to NCI-H460 lung.
Assay [12] deals with ACHN renal.
Assay [13] relates to M14 melanoma.
Assay [14] has as its system LOX IMVI melanoma.
The subject of assay [15] is OVCAR-4 ovarian.
In assay [16] the test system is NCI-H522 lung.
For assay [17], the system named is COLO 205 colon.
Assay [18] deals with SK-MEL-5 melanoma.

Molecules are shown by their SMILES.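 Values below derive from 48-hour exposures of cells grown in 96-well plates, with endpoints linearly interpolated between the two concentrations bracketing the appropriate inhibition level. TGI denotes the concentration required for complete inhibition of growth.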

`CNc1ccc(Cl)cc1C(=O)N1CCC[C@H]1CO`: the TGI in assay [1], in assay [2], in [3], in [4], in assay [5] and in assay [6] was over 100 µM each time. In addition, the TGI in assay [7], in [8], in [9], in assay [10], in [11] and in assay [12] was over 100 µM each time. Moreover, the TGI in assay [13], in [14], in assay [15], in assay [16] and in [17] was over 100 µM throughout.
Turning to `CN(C)c1ccc(C2=C([O-])c3cc(-[n+]4ccccc4)ccc3C2=O)cc1`, the TGI in [1], in assay [2], in assay [3], in [4], in assay [5] and in [6] was over 100 µM throughout. The TGI in [7], in assay [8], in assay [9], in assay [10], in [11] and in [12] was over 100 µM throughout. In addition, the TGI in assay [14], in [15], in [16], in assay [17] and in assay [18] was over 100 µM throughout.
Turning to `COC(=O)C1=C(C(=O)OC)N(c2ccncc2)C(c2ccco2)=CC1c1ccccc1[N+](=O)[O-]` (configuration not stated), the TGI in assay [1] came to 8.21 µM; in assay [2], 4.19 µM; in assay [3] it was 7.06 µM; in [4], 9.72 µM; in assay [5], 18.7 µM; in assay [6] it was 3.38 µM. Further, the TGI in assay [7] worked out at 2.7 µM; in assay [8], 5.26 µM; in assay [9], 15.9 µM; in assay [10], 29.8 µM; in assay [11] it was 14.7 µM; in [12] it was 3.47 µM. Also, the TGI in assay [14] amounted to 3.35 µM; in assay [15], 15.7 µM; in assay [16], 5.06 µM; in [17], 10.2 µM.
For the compound `N#CCc1nc(-c2cc3ccc(O)cc3oc2=O)cs1`, the TGI in [1], in assay [2], in assay [3], in assay [4], in assay [5] and in [6] was over 100 µM in each case. Further, the TGI in assay [7], in assay [8], in assay [9], in assay [11], in [12] and in assay [13] was over 100 µM in each case. Besides, the TGI in assay [14], in assay [15], in assay [16], in assay [17] and in assay [18] was over 100 µM each time.
On to `CCOC(=O)c1nc2ccc(C(F)(F)F)cc2nc1NCc1ccc(F)cc1`, for which the TGI was over 100 µM in assay [1]; 77.3 µM in assay [2]; over 100 µM in [3]; over 100 µM in [4]; over 100 µM in assay [5]; over 100 µM in [6]. For the same compound, the TGI in assay [7] was over 100 µM; in assay [8], over 100 µM; in [9], over 100 µM; in assay [10], over 100 µM; in assay [11] it was 75.4 µM; in assay [12], over 100 µM. In addition, the TGI was over 100 µM in assay [13]; over 100 µM in assay [14]; 90.9 µM in assay [15]; 88.9 µM in [16]; 81 µM in [17].
In the case of `O=C1/C(=C\c2cccc(Oc3ccccc3)c2)SC(c2ccccc2)N1Cc1ccccc1` (configuration not stated), the TGI in assay [1] is over 100 µM; in [3] it was over 100 µM; in [4], over 100 µM; in assay [5] it was 57.7 µM; in [6], 83.8 µM; in assay [7], 34 µM. Also, the TGI was 56.8 µM in assay [8]; over 100 µM in assay [9]; 62.7 µM in assay [10]; over 100 µM in assay [11]; over 100 µM in [12]; 66.7 µM in assay [13]. Further, the TGI in assay [14] is 32 µM; in [15], over 100 µM; in [16], 46.1 µM; in assay [17], 22 µM; in assay [18], 28 µM.
Consider `CCC12CN(C(=O)OC)C3C(Br)C1CCC(=O)C32` (configuration not stated), for which the TGI in [1], in [2], in assay [3], in assay [5], in assay [6] and in [8] was over 100 µM each time. Moreover, the TGI in assay [9], in [10], in assay [11], in assay [12], in assay [13] and in [14] was over 100 µM in each case. Further, the TGI in assay [15], in assay [16], in assay [17] and in [18] was over 100 µM in each case.
